Assay results: publication PMC9569988 (International Journal of Molecular Sciences, 2022)
Where “and” joins values, the source holds several entries; their conditions need not be identical. Equal values may be shown once. Entries after “also recorded” stand apart in the source; their conditions may differ.

Columns and labels:
[1] = test system: SADS-CoV; test: microbe, parasite or virus in culture; type: cell-based, Swine acute diarrhea syndrome coronavirus; conditions: for inhibition at 10 µM: Swine acute diarrhea syndrome coronavirus, Huh-7, read-out: inhibition rate of SADS-CoV viral replication (qPCR)
[2] = test system: SADS-CoV; test: microbe, parasite or virus in culture; type: cell-based; conditions: Swine acute diarrhea syndrome coronavirus, Huh-7
[3] = test system: SADS-CoV; type: cell-based, Swine acute diarrhea syndrome coronavirus
[4] = test system: SADS-CoV; type: cell-based, Swine acute diarrhea syndrome coronavirus; remark: listed apart in the source
[5] = test system: SADS-CoV; type: cell-based, Swine acute diarrhea syndrome coronavirus; remark: listed apart in the source
[6] = test system: SADS-CoV; type: cell-based, Swine acute diarrhea syndrome coronavirus; remark: listed apart in the source
[7] = test system: SADS-CoV; type: cell-based, Swine acute diarrhea syndrome coronavirus; remark: listed apart in the source
[8] = in vitro; conditions: human
[9] = test system: SADS-CoV; type: cell-based, Swine acute diarrhea syndrome coronavirus; remark: listed apart in the source
[10] = test system: SADS-CoV nucleocapsid protein; type: cell-based, Swine acute diarrhea syndrome coronavirus
[11] = test system: Huh7 cells

SMILES	CPE inhibition in SADS-CoV infection [1]	inhibition at 10 µM [1]	EC50 [2]	decrease of viral RNA expression in the cells [3]	viral titers in the supernatant (infectious progeny) [4]	effect on virus internalization [5]	SADS-CoV titer (TCID50) at 24 hpi [6]	virus RNA level in the supernatant when added after virus entry [7]	CC50 [8]	effect on virus binding compared with positive control [9]	decrease of viral RNA in the supernatant [7]	expression of viral proteins in cells (immunoblot) [10]	CC50 [11]	decrease of SADS-CoV RNA in binding assay [9]	reduction of viral RNA compared with the positive control [7]	viral RNA decrease [7]
COc1ccc2cc1Oc1ccc(cc1)C[C@H]1c3c(cc4c(c3Oc3cc5c(cc3OC)CCN(C)[C@@H]5C2)OCO4)CCN1C [Cepharanthine]	significantly exhibited CPE inhibitions	> 60%	789 nM	72.9% and 57.5%	at the ”Entry” stage could reduce infectious progeny	less function	viral titer was decreased; also recorded: also effective; also recorded: showed a reduction in SADS-CoV viral progeny	could not inhibit SADS-CoV replication	16200 nM	–	–	–	–	–	–	–
Nc1ccn([C@@H]2O[C@H](CO)[C@@H](O)C2(F)F)c(=O)n1 [Gemcitabine]	significantly exhibited CPE inhibitions	> 60%	117 nM	less remarkable differences	exhibited inhibitory effects only when they were added after viral entry	no statistically significant difference	–	–	88500 nM	no statistically significant difference	1.8 log	inhibition effect	low cytotoxicity	–	–	–
CN(C)c1ccc2nc3ccc(=[N+](C)C)cc-3sc2c1 [Methylene blue]	significantly exhibited CPE inhibitions	> 60%	218 nM	–	strong inhibitory activity against viral replication during both periods	no distinct effect	inhibit SADS-CoV infection; also recorded: inhibition effect got better	–	> 25000 nM	–	–	inhibition of viral protein expression	low cytotoxicity	78.5% and 88.5%	2- to 3 log	3 log
COc1c(C)c2c(c(O)c1C/C=C(\C)CCC(=O)OCCN1CCOCC1)C(=O)OC2 [Mycophenolate mofetil]	significantly exhibited CPE inhibitions	> 60%	1700 nM	91.5% and 65.8%	exhibited inhibitory effects only when they were added after viral entry	no statistically significant difference	–	–	> 100000 nM	no statistically significant difference	0.5 log	inhibition effect	low cytotoxicity	–	–	–
COc1c(C)c2c(c(O)c1C/C=C(\C)CCC(=O)O)C(=O)OC2 [Mycophenolic acid]	significantly exhibited CPE inhibitions	> 60%	560 nM	96.7% and 93.9%	exhibited inhibitory effects only when they were added after viral entry	no statistically significant difference	–	–	> 100000 nM	no statistically significant difference	0.9 log	inhibition effect	low cytotoxicity	–	–	–
